Each compound was assayed against Urease (Canavalia ensiformis, UniProt P07374) (assay: Inhibition Assay).
Text: In vitro inhibition assay using jack bean urease.

Urease, sequence (P07374 whole entry): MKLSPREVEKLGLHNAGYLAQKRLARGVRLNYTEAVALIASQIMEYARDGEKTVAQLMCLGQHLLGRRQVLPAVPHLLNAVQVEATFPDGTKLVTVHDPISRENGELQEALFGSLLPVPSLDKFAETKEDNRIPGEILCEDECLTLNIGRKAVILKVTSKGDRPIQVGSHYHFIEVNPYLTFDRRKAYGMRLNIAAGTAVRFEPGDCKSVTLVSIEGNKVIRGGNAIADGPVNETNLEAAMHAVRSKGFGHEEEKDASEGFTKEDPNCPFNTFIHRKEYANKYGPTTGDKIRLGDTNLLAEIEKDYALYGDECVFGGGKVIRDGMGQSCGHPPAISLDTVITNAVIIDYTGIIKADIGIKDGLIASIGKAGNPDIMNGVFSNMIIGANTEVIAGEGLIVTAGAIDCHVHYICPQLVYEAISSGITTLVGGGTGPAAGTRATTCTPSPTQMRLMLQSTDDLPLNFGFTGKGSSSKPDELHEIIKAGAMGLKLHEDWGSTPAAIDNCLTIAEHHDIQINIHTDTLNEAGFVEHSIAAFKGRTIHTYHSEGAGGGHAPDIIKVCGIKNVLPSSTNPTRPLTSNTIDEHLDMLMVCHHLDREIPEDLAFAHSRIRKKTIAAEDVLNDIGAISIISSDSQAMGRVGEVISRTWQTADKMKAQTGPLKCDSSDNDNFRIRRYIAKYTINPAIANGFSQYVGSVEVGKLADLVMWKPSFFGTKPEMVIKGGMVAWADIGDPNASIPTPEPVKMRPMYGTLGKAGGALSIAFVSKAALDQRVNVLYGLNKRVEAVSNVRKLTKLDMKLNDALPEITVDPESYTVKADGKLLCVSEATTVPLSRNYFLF

Point of comparison: `c1ccc(C2=Nc3ccccc3SC(c3ccccc3)C2)cc1` (stereo unspecified) [Dihydro-1,5-benzothiazepine analog, 2], IC50 26.3 µM. Against it:
- O=[N+]([O-])c1ccc(C2CC(c3ccccc3)=Nc3ccccc3S2)cc1 (stereo unspecified) [Dihydro-1,5-benzothiazepine analog, 5] — within 1.5-fold, 36.7 µM
- Oc1ccccc1C1CC(c2ccc(F)cc2)Sc2ccccc2N1 [2,3,4,5-Tetrahydro-1,5-benzothiazepine analog (2S,4R), 7] — 3.6-fold higher, 93.7 µM
- Cc1ccc(C2CC(c3ccccc3)=Nc3ccccc3S2)cc1 (stereo unspecified) [Dihydro-1,5-benzothiazepine analog, 3] — within 1.5-fold, 24.6 µM
- Oc1ccccc1C1CC(c2ccccc2)Sc2ccccc2N1 [2,3,4,5-Tetrahydro-1,5-benzothiazepine analog (2S,4R), 6] — 3.5-fold higher, 91.2 µM
- O=COc1ccc(C2CC(c3ccccc3O)=Nc3ccccc3S2)cc1OC=O (stereo unspecified) [Dihydro-1,5-benzothiazepine analog, 4] — within 1.5-fold, 19.1 µM
